Measurements as given in patent US11226337B2, “Chemoproteomic profiling of protein electrophilic and oxidative post-translational modifications” (Zenagem, LLC, priority 2017, dated 2022).

Assays:
[1] = tested on: Uncharacterized protein (H7C469); assay: SILAC RP-ABPP; type: cell-based, human; conditions: SILAC H/L
Description: For MS-based experiments, labelling was performed in a similar manner as described above in Example 2, maintaining the same concentrations of probes. Modifications to this protocol included using isotopically ‘light’ and ‘heavy’ SILAC cells that were also grown to near complete confluence prior to treatment. Isotopically light cells were treated with the non-clickable hydrazine probe (at the same concentration as the probe in ‘enrichment’ experiments) or the probe in the presence of 10-fold excess non-clickable hydrazine probe as a competitor (in ‘competition’ experiments). Isotopically heavy cells were treated with the probe for both types of experiments. These treatments were performed in non-SILAC media. Following treatments, cells were washed with cold PBS to remove the probe-containing media, harvested by scraping, collected by centrifugation (1,400 g, 3 min, 4° C.), washed again by resuspension in cold PBS and frozen as pellets at −80° C. until use. […]
Heavy and light parent ion chromatograms associated with successfully identified peptides were extracted and compared using CIMAGE software as previously described^69. […] To ensure that the correct pair of peaks is quantified, chromatograms are extracted within a 10 ppm error tolerance of the predicted m/z, the signal-to-noise ratio must be >2.5 and the ‘co-elution correlation score’ and ‘envelope correlation score’ must have R^2 values ≥0.8. In addition, peptides detected as ‘singletons,’ where only the heavy ion of a peptide pair was identified, but for which passed all other filtering parameters, are given a default assigned ratio of ‘20,’ which is defined as any measured ratio that is ≥20.
To further eliminate false positives and any stochastic variability in the data, protein ratios were then determined by the median peptide ratio derived from three or more unique quantified peptides. […] Most importantly, there are no robustly measured ratios for proteins identified as probe 1 targets that had measured ratios of ˜1 with probe 2. […]

AMD1 = biological target: T1, AMD1 (Homo sapiens, UniProt P17707); assay: probe labelling of E. coli cells expressing the protein; type: cell-based; conditions: probe 1 3 mM or probe 2 1 mM, 37° C., 0.5 hour
T1 construct: made in house; host or cells: E. coli (intact cells treated with probe)
Description: Induced overnight cultures expressing each protein were resuspended in serum-free DMEM supplemented with 10 mM Na-HEPES buffer (pH 7.5) such that the final OD600 was ˜10. The probes were added to the cells (3 and 1 mM, respectively, for 1 and 2) and incubated at 37° C. for 0.5 hour. Note that these are the same conditions used for treatment of mammalian cells. The cells were pelleted (16,000 g, 3 min, 4° C.), washed with PBS (2×1 mL), and resuspended in HEPES buffer or PBS maintaining the same initial volume. Cells were lysed by sonication, debris was pelleted, soluble protein was diluted to 0.5 mg/mL with PBS and probe-labelled proteins were conjugated to rhodamine-azide and visualized as described above in Example 2.

T1 sequence (P17707 68-334): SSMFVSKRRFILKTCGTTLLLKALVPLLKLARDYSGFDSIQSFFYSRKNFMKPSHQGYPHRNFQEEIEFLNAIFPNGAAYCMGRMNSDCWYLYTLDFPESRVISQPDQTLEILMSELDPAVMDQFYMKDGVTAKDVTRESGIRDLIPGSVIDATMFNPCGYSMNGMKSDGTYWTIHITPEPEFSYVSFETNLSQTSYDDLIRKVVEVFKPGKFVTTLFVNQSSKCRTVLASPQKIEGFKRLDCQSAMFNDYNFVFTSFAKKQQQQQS
T1 sequence (P17707 2-67): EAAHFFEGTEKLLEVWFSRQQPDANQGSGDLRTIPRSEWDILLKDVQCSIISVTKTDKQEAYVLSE

| Compound | competition ratioavg ([1]; probe 1 vs probe 1+10x probe 3, cell line not given) | probe labelling of protein expressed in E. coli (AMD1) | enrichment ratioavg ([1]; probe 2 1 mM 0.5 h vs probe 4, MDA-MB-231) | competition ratioavg ([1]; probe 2 vs probe 2+10x probe 4, MDA-MB-231) |
| --- | --- | --- | --- | --- |
| C#CCNN.Cl [probe 1, prop-2-yn-1-ylhydrazine hydrochloride] | 2 | reacts well | – | – |
| C#CCCNC(=O)c1ccc(NN)cc1.Cl [probe 2, N-(but-3-yn-1-yl)-4-hydrazinylbenzamide hydrochloride] | – | reacts well | 14 | 5 |
